Assay results published in patent US12319664B2, “Herbicidally active 3-phenylisoxazoline-5-carboxamides of cyclopentenylcarboxylic acid derivatives” (Bayer Aktiengesellschaft, priority 2018, dated 2025).

Key:
ALOMY [1] = assay: Pre-emergence herbicidal action against ALOMY; format: in vivo, Alopecurus myosuroides; details: application rate 80 g/ha, scored visually after about 3 weeks vs untreated controls (100% = plants have died, 0% = like control plants)
Description: (§1) 1. Pre-emergence herbicidal action against harmful plants and crop plant compatibility Seeds of monocotyledonous and dicotyledonous weed plants and crop plants are placed in plastic or wood-fibre pots and covered with soil. The compounds of the invention, formulated in the form of wettable powders (WP) or as emulsion concentrates (EC), are then applied onto the surface of the covering soil as aqueous suspension or emulsion with addition of 0.5% additive at a water application rate of 600 l/ha (converted). After the treatment, the pots are placed in a greenhouse and kept under good growth conditions for the trial plants. After about 3 weeks, the effect of the preparations is scored visually in comparison with untreated controls as percentages. For example, 100% activity=the plants have died, 0% activity=like control plants. [table]

AVEFA [2] = assay: Pre-emergence herbicidal action against AVEFA; format: in vivo, Avena fatua; details: application rate 80 g/ha, scored visually after about 3 weeks vs untreated controls (100% = plants have died, 0% = like control plants)
Description: as §1

ECHCG [3] = assay: Pre-emergence herbicidal action against ECHCG; format: in vivo, Echinochloa crus-galli; details: application rate 80 g/ha, scored visually after about 3 weeks vs untreated controls (100% = plants have died, 0% = like control plants)
Description: as §1

LOLRI [4] = assay: Pre-emergence herbicidal action against LOLRI; format: in vivo, Lolium rigidum; details: application rate 80 g/ha, scored visually after about 3 weeks vs untreated controls (100% = plants have died, 0% = like control plants)
Description: as §1

SETVI [5] = assay: Pre-emergence herbicidal action against SETVI; format: in vivo, Setaria viridis; details: application rate 80 g/ha, scored visually after about 3 weeks vs untreated controls (100% = plants have died, 0% = like control plants)
Description: as §1

AMARE [6] = assay: Pre-emergence herbicidal action against AMARE; format: in vivo, Amaranthus retroflexus; details: application rate 80 g/ha
Description: as §1

POLCO [7] = assay: Pre-emergence herbicidal action against POLCO; format: in vivo, Polygonum convolvulus; details: application rate 80 g/ha
Description: as §1

STEME [8] = assay: Pre-emergence herbicidal action against STEME; format: in vivo, Stellaria media; details: application rate 80 g/ha
Description: as §1

VIOTR [9] = assay: Pre-emergence herbicidal action against VIOTR; format: in vivo, Viola tricolor; details: application rate 80 g/ha
Description: as §1

VERPE [10] = assay: Pre-emergence herbicidal action against VERPE; format: in vivo, Veronica persica; details: application rate 80 g/ha
Description: as §1

HORMU [11] = assay: Pre-emergence herbicidal action against HORMU; format: in vivo, Hordeum murinum; details: application rate 80 g/ha
Description: as §1

ALOMY [12] = assay: Post-emergence herbicidal action against ALOMY; format: in vivo, Alopecurus myosuroides; details: application rate 80 g/ha, rated visually after about 3 weeks
Procedure, shortened: (§2)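 Aqueous suspensions or emulsions of WP/EC formulations containing 0.5% additive are sprayed at 600 l/ha onto plants at the one-leaf stage. After about 3 weeks in the greenhouse, activity is rated by eye versus untreated controls.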

AVEFA [13] = assay: Post-emergence herbicidal action against AVEFA; format: in vivo, Avena fatua; details: application rate 80 g/ha, rated visually after about 3 weeks
Procedure, shortened: as §2

ECHCG [14] = assay: Post-emergence herbicidal action against ECHCG; format: in vivo, Echinochloa crus-galli; details: application rate 80 g/ha, rated visually after about 3 weeks
Procedure, shortened: as §2

LOLRI [15] = assay: Post-emergence herbicidal action against LOLRI; format: in vivo, Lolium rigidum; details: application rate 80 g/ha, rated visually after about 3 weeks
Procedure, shortened: as §2

STEME [16] = assay: Post-emergence herbicidal action against STEME; format: in vivo, Stellaria media; details: application rate 80 g/ha, rated visually about 3 weeks after treatment
Procedure, shortened: as §2

VIOTR [17] = assay: Post-emergence herbicidal action against VIOTR; format: in vivo, Viola tricolor; details: application rate 80 g/ha, rated visually about 3 weeks after treatment
Procedure, shortened: as §2

VERPE [18] = assay: Post-emergence herbicidal action against VERPE; format: in vivo, Veronica persica; details: application rate 80 g/ha
Procedure, shortened: as §2

PHBPU [19] = assay: Pre-emergence herbicidal action against PHBPU; format: in vivo, Pharbitis purpurea; details: application rate 80 g/ha
Description: as §1

SETVI [20] = assay: Post-emergence herbicidal action against SETVI; format: in vivo, Setaria viridis; details: application rate 80 g/ha, rated visually after about 3 weeks
Procedure, shortened: as §2

AMARE [21] = assay: Post-emergence herbicidal action against AMARE; format: in vivo, Amaranthus retroflexus; details: application rate 80 g/ha, rated visually about 3 weeks after treatment
Procedure, shortened: as §2

PHBPU [22] = assay: Post-emergence herbicidal action against PHBPU; format: in vivo, Pharbitis purpurea; details: application rate 80 g/ha, rated visually about 3 weeks after treatment
Procedure, shortened: as §2

HORMU [23] = assay: Post-emergence herbicidal action against HORMU; format: in vivo, Hordeum murinum; details: application rate 80 g/ha
Procedure, shortened: as §2

POLCO [24] = assay: Post-emergence herbicidal action against POLCO; format: in vivo, Polygonum convolvulus; details: application rate 80 g/ha, rated visually about 3 weeks after treatment
Procedure, shortened: as §2

ABUTH = assay: Post-emergence herbicidal action against ABUTH; format: in vivo, Abutilon theophrasti; details: application rate 80 g/ha, rated visually about 3 weeks after treatment
Procedure, shortened: as §2

SMILES | Herbicidal action against [%] ALOMY (ALOMY [1]) [%] | Herbicidal action against [%] AVEFA (AVEFA [2]) [%] | Herbicidal action against [%] ECHCG (ECHCG [3]) [%] | Herbicidal action against [%] LOLRI (LOLRI [4]) [%] | Herbicidal action against [%] SETVI (SETVI [5]) [%] | Herbicidal action against [%] AMARE (AMARE [6]) [%] | Herbicidal action against [%] POLCO (POLCO [7]) [%] | Herbicidal action against [%] STEME (STEME [8]) [%] | Herbicidal action against [%] VIOTR (VIOTR [9]) [%] | Herbicidal action against [%] VERPE (VERPE [10]) [%] | Herbicidal action against [%] HORMU (HORMU [11]) [%] | Herbicidal action against [%] ALOMY (ALOMY [12]) [%] | Herbicidal action against [%] AVEFA (AVEFA [13]) [%] | Herbicidal action against [%] ECHCG (ECHCG [14]) [%] | Herbicidal action against [%] LOLRI (LOLRI [15]) [%] | Herbicidal action against [%] STEME (STEME [16]) [%] | Herbicidal action against [%] PHBPU (PHBPU [19]) [%] | Herbicidal action against [%] SETVI (SETVI [20]) [%] | Herbicidal action against [%] AMARE (AMARE [21]) [%] | Herbicidal action against [%] HORMU (HORMU [23]) [%] | further results
CC1(C(=O)NC2C=CC(C(=O)N3CCCCO3)C2)CC(c2cc(F)cc(F)c2)=NO1 (mixture of isomers) [II-07] | 100 | 80 | 90 | 100 | 100 | 100 | 100 | 100 | 100 | 100 | 90 | 80 | 80 | 80 | 80 | 90 | – | – | – | – | Herbicidal action against [%] VIOTR (VIOTR [17]): 80%; Herbicidal action against [%] VERPE (VERPE [18]): 80%
CC1(C(=O)N[C@H]2CC=C(C(=O)O)C2)CC(c2cccc(F)c2)=NO1 (stereo partly shown) [III-02] | 100 | 80 | – | 100 | – | 80 | – | 80 | – | 90 | 100 | 80 | 90 | 90 | 90 | 80 | 80 | 80 | 80 | 100 | Herbicidal action against [%] PHBPU (PHBPU [22]): 80%; Herbicidal action against [%] VERPE (VERPE [18]): 80%
COC(=O)C1=CC[C@H](NC(=O)C2(C)CC(c3cccc(F)c3)=NO2)C1 (stereo partly shown) [III-04] | 100 | 90 | 90 | 100 | 100 | 90 | 100 | 90 | 90 | 90 | 100 | 90 | 100 | 80 | 90 | 80 | 90 | 80 | 80 | 100 | Herbicidal action against [%] PHBPU (PHBPU [22]): 90%; Herbicidal action against [%] POLCO (POLCO [24]): 80%
CCOC(=O)C1=CC[C@H](NC(=O)C2(C)CC(c3cccc(F)c3)=NO2)C1 (stereo partly shown) [III-06] | 100 | 80 | 90 | 100 | 100 | – | 100 | 90 | 90 | 80 | 90 | 90 | 80 | 80 | 90 | 90 | 80 | 80 | 80 | 90 | Herbicidal action against [%] ABUTH (ABUTH): 80%; Herbicidal action against [%] POLCO (POLCO [24]): 80%
